Measurements taken from PMC4883112 (Journal of medicinal chemistry, 2015).
pIC50: −log10 of the molar value. In brackets after ≈: the same amount, converted by molar mass. Entries after “also recorded” stand apart in the source; their conditions may differ.

What was measured:
[1] = tested on: wild-type zebrafish (Danio rerio) embryos; test: Wild-type zebrafish embryo phenotype assay; conditions: for Lethality in zebrafish embryos: concentration range < 60μM, added 24 hpf, compared at 96 and 120 hpf
[2] = Aqueous solubility, Shake-Flask method and HPLC; format: physicochemical; conditions: water with 2% DMSO
GSK-3β = GSK-3β (Sus scrofa, UniProt B2LUN4); test: Commercial in vitro GSK-3β inhibition assay at single concentration; format: biochemical, porcine; conditions: duplicates; for inhibition at 1 µM: read-out: GSK-3β Inhibition [%], 1 μM of compound
GSK-3α = GSK-3α (Sus scrofa, UniProt I6LNT8); test: Commercial in vitro GSK-3α inhibition assay at single concentration; format: biochemical, porcine; conditions: read-out: GSK-3α Inhibition [%]
[3] = tested on: Tyr216 GSK-3β phosphorylation; test: GSK-3β Tyr216 phosphorylation in AML cells; format: cell-based; conditions: up to 20 μM; 24h treatment, NB4
GSK-3β (h) = GSK-3β (h) (Homo sapiens, UniProt P49841); test: IC50 determination GSK-3β; format: biochemical
[4] = tested on: AML cell lines (HL-60 and NB4); test: AML differentiation; format: cell-based; conditions: 6 days of treatment
[5] = tested on: Tyr279 GSK-3α phosphorylation; test: GSK-3α Tyr279 phosphorylation in AML cells; format: cell-based; conditions: 24h treatment, increasing concentrations, NB4
NB4 and HL-60 cell lines = test: Methylcellulose colony formation; format: cell-based; conditions: concentration-dependent

GSK-3β, sequence (B2LUN4 1-420): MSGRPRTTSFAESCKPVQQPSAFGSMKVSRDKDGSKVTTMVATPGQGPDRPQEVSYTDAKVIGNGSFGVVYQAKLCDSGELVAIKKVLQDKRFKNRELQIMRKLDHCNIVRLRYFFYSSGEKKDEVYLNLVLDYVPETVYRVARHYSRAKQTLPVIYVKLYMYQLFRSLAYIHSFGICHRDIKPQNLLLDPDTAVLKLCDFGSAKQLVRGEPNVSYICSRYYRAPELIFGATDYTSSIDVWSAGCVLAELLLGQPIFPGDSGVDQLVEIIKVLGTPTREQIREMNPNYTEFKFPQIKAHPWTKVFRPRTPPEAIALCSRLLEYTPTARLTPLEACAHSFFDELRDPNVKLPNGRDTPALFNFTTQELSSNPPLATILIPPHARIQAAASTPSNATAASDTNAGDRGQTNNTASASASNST
GSK-3α, sequence (I6LNT8 1-483): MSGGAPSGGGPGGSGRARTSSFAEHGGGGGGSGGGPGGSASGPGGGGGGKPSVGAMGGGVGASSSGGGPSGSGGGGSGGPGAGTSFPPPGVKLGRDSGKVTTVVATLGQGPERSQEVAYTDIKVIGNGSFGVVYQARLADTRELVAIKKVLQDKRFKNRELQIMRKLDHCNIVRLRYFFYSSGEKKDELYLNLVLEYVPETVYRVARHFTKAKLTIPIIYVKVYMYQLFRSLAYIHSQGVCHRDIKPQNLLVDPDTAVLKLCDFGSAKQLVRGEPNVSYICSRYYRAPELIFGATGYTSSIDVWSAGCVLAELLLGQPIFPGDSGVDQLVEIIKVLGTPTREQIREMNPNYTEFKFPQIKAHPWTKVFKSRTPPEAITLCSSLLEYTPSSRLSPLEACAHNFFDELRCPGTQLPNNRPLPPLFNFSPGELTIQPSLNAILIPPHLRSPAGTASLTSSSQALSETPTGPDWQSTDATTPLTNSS
GSK-3β (h), sequence (P49841 whole entry): as the sequence (B2LUN4 1-420) above, with M40V, A59T, S392T, T400A, A402T, T411A counted along it

Which results are given for `N#Cc1ccc(-c2ccc(CSc3nnc(-c4ccc5c(c4)OCCO5)o3)cc2)nc1` [Compound 13d, 6-(4-((5-(2,3-Dihydrobenzo[b][1,4]dioxin-6-yl)-1,3,4-oxadiazol-2-ylthio)methyl)phenyl)-nicotinonitrile]?
Lethality in zebrafish embryos [1]: no lethality; Effects on zebrafish embryo phenotype ([1]; in vivo): no effects; solubility [2]: 78 µg/mL (≈ 182 µM)

Which solubility [2] does the source give for `Fc1ccc(-c2ccc(CSc3nnc(-c4ccc5c(c4)OCCO5)o3)cc2)cn1` [Compound 13f, 2-(2,3-Dihydrobenzo[b][1,4]dioxin-6-yl)-5-((4-(6-fluoropyridin-3-yl)benzyl)thio)-1,3,4-oxadiazole] here?
Its solubility is 7 µg/mL (≈ 16.6 µM).

For `N#Cc1cc(F)ccc1-c1ccc(CSc2nnc(-c3ccc4c(c3)OCCO4)o2)cc1` [Compound 1, 4′-(((5-(2,3-Dihydrobenzo[b][1,4]dioxin-6-yl)-1,3,4-oxadiazol-2-yl)thio)methyl)-4-fluoro-[1,1′-biphenyl]-2-carbonitrile], which solubility [2] is on record?
Its solubility is under 1 µg/mL.

With `N#Cc1cc(F)ccc1-c1ccc(CS(=O)(=O)c2nnc(-c3ccc4c(c3)OCCO4)o2)cc1` [Compound 26, 4′-((5-(2,3-Dihydrobenzo[b][1,4]dioxin-6-yl)-1,3,4-oxadiazol-2-yl-sulfonyl)methyl)-4-fluorbiphenyl-2-carbonitrile] as the compound, how does the inhibition at 0.1 µM (GSK-3β; read-out: GSK-3β Inhibition [%], 100 nM of compound) read?
Its inhibition at 0.1 µM is 0%.

What about the inhibition at 0.1 µM (GSK-3α) of the same compound?
Its inhibition at 0.1 µM is 0%.

With `Cc1ccc(-c2ccc(CSc3nnc(-c4ccc5c(c4)OCCO5)o3)cc2)nc1` [Compound 13e, 2-(2,3-Dihydrobenzo[b][1,4]dioxin-6-yl)-5-(4-(5-methylpyridin-2-yl)benzylthio)-1,3,4-oxadiazole] as the compound, how does the solubility [2] read?
The solubility was under 1 µg/mL.

With `NC(=O)c1cc(F)ccc1-c1ccc(CSc2nnc(-c3ccc4c(c3)OCCO4)o2)cc1` [Compound 27, 4′-((5-(2,3-Dihydrobenzo[b][1,4]dioxin-6-yl)-1,3,4-oxadiazol-2-yl-thio)-methyl)-4-fluorbiphenyl-2-carboxamide] as the compound, how does the “Tyr216 GSK-3β phosphorylation” value [3] read?
Its value is “without any relevant effect”.

What about the “Lethality in zebrafish embryos” value [1] of the same compound?
Its value is “no lethality; also recorded: without lethality”.

What about the “Zebrafish embryo phenotype at higher concentrations” value ([1]; in vivo) of the same compound?
The value was “all zebrafish embryos showed a stunted and crooked tailed phenotype”.

And the “Zebrafish embryo phenotype at lower concentrations” value ([1]; in vivo)?
The value was “no abnormalities were observed”.

And the inhibition at 1 µM (GSK-3β)?
Its inhibition at 1 µM is 100%.

What about the pIC50 (GSK-3β (h)) of the same compound?
Its pIC50 is 7.85.

What about the “Morphological and surface marker changes” value [4] of the same compound?
Its value is “consistent with AML differentiation”.

And the “Tyr279 GSK-3α phosphorylation” value [5]?
The value was “concentration-dependent decrease”.

What about the inhibition at 1 µM (GSK-3α) of the same compound?
Its inhibition at 1 µM is 100%.

And the Methylcellulose colony formation (NB4 and HL-60 cell lines)?
The Methylcellulose colony formation was “colony formation impairment”.

What about the solubility [2] of the same compound?
The solubility was 34 µg/mL (≈ 73.4 µM).

For `N#Cc1cc(F)ccc1-c1ccc(CSc2nnc(-c3ccc4nc[nH]c4c3)o2)cc1` [Compound 12a, 4′-(((5-(1H-Benzo[d]imidazol-6-yl)-1,3,4-oxadiazol-2-yl)thio)methyl)-4-fluoro-[1,1′-biphenyl]-2-carbonitrile], which inhibition at 1 µM (GSK-3β) is on record?
Its inhibition at 1 µM is 0%.

With `Fc1ccc(-c2ccc(CSc3nnc(-c4ccc5c(c4)OCCO5)o3)cn2)cn1` [Compound 18c, 2-(2,3-Dihydrobenzo[b][1,4]dioxin-6-yl)-5-(((6′-fluoro-[2,3′-bipyridin]-5-yl)methyl)thio)-1,3,4-oxadiazole] as the compound, how does the solubility [2] read?
Its solubility is under 1 µg/mL.
